Measurements reported in ChEMBL document CHEMBL1156249, “Highly effective binding of viologens by p-sulfonatocalixarenes for the treatment of viologen poisoning” (J Med Chem, 2009).
Calls of active or inactive are those of the source. No cut-off for these calls is given here.

Columns and labels:
[1] = Binding affinity to viologen paraquat cation at pH 7.2 by microcalorimetric titration method
Mus musculus [2] = test: Reduction of viologen poisoning in Kunming mouse assessed as protection from viologen-associated pathological changes in lung at 100 uL/20g body weight, iv administered 30 mins after viologen challenge for 13 days measured on day 14 by hematoxylin and eosin staining-based microscopy; assay type: functional, organism-based
Mus musculus [3] = test: Reduction of viologen poisoning in Kunming mouse assessed as protection from viologen-associated pathological changes in lung at 100 uL/20g body weight, iv administered 2 hrs after viologen challenge for 13 days measured on day 14 by hematoxylin and eosin staining-based microscopy; assay type: functional, organism-based
[4] = Binding affinity to viologen paraquat cation assessed as compound-viologen complex stability at pH 2 by isothermal calorimetry
Mus musculus [5] = test: Reduction of viologen poisoning in Kunming mouse assessed as change in body weight at 100 uL/20g body weight, iv for 13 days measured on day 14 (reference value: 14 g); assay type: functional
Mus musculus [6] = test: Reduction of viologen poisoning in Kunming mouse assessed as viologen-associated mortality rate at 100 uL/20g body weight, iv administered immediately after viologen challenge for 13 days measured on day 14; assay type: functional; set-up: scale not given: the % may be the effect or the level left
[7] = Binding affinity to viologen diquat cation assessed as compound-viologen complex stability at pH 7.2 by isothermal calorimetry
Mus musculus [8] = test: Reduction of viologen poisoning in Kunming mouse assessed as change in body weight at 100 uL/20g body weight, iv administered 1 hr after viologen challenge for 13 days measured on day 14 (reference value: 14 g); assay type: functional
Mus musculus [9] = test: Reduction of viologen poisoning in Kunming mouse assessed as viologen-associated mortality rate at 100 uL/20g body weight, iv for 13 days measured on day 14; assay type: functional; set-up: scale not given: the % may be the effect or the level left
[10] = Binding affinity to viologen diquat cation assessed as compound-viologen complex formation by NMR spectroscopy
[11] = Binding affinity to viologen paraquat cation assessed as compound-viologen complex stability at pH 7.2 by isothermal calorimetry
Mus musculus [12] = test: Reduction of viologen poisoning in Kunming mouse assessed as change in body weight at 100 uL/20g body weight, iv administered 2 hrs after viologen challenge for 13 days measured on day 14 (reference value: 14 g); assay type: functional
[13] = Binding affinity to viologen diquat cation at pH 7.2 by microcalorimetric titration method
Mus musculus [14] = test: Reduction of viologen poisoning in Kunming mouse assessed as protection from viologen-associated pathological changes in lung at 100 uL/20g body weight, iv administered immediately after viologen challenge for 13 days measured on day 14 by hematoxylin and eosin staining-based microscopy; assay type: functional, organism-based
Mus musculus [15] = test: Reduction of viologen poisoning in Kunming mouse assessed as change in body weight at 100 uL/20g body weight, iv administered 30 mins after viologen challenge for 13 days measured on day 14 (reference value: 14 g); assay type: functional
[16] = Binding affinity to viologen paraquat cation assessed as compound-viologen complex formation by NMR spectroscopy
Mus musculus [17] = test: Toxicity in Kunming mouse assessed as change in body weight at 100 uL/20g body weight, iv for 13 days measured on day 14 (reference value: 32.8 +/- 3.8 g); assay type: organism-based; conditions: in vivo, 312 h
[18] = Binding affinity to viologen diquat cation at pH 1.5 by microcalorimetric titration method
Mus musculus [19] = test: Reduction of viologen poisoning in Kunming mouse assessed as viologen-associated mortality rate at 100 uL/20g body weight, iv administered 2 hrs after viologen challenge for 13 days measured on day 14; assay type: functional; set-up: scale not given: the % may be the effect or the level left
Mus musculus [20] = test: Reduction of viologen poisoning in Kunming mouse assessed as protection from viologen-associated pathological changes in lung at 100 uL/20g body weight, iv administered 1 hr after viologen challenge for 13 days measured on day 14 by hematoxylin and eosin staining-based microscopy; assay type: functional, organism-based
[21] = Binding affinity to viologen diquat cation assessed as compound-viologen complex stability at pH 2 by isothermal calorimetry
Mus musculus [22] = test: Reduction of viologen poisoning in Kunming mouse assessed as protection from viologen-associated pathological changes in liver at 100 uL/20g body weight, iv for 13 days measured on day 14 by hematoxylin and eosin staining-based microscopy; assay type: functional, organism-based
[23] = Binding affinity to viologen paraquat cation assessed as decrease in hydroxyl radical production at pH 7.2 by cyclic voltammetry
Mus musculus [24] = test: Reduction of viologen poisoning in Kunming mouse assessed as change in body weight at 100 uL/20g body weight, iv administered immediately after viologen challenge for 13 days measured on day 14 (reference value: 14 g); assay type: functional
Mus musculus [25] = test: Reduction of viologen poisoning in Kunming mouse assessed as protection from viologen-associated pathological changes in lung at 100 uL/20g body weight, iv for 13 days measured on day 14 by hematoxylin and eosin staining-based microscopy; assay type: functional, organism-based
[26] = Binding affinity to viologen diquat cation assessed as decrease in hydroxyl radical production at pH 7.2 by cyclic voltammetry
Mus musculus [27] = test: Reduction of viologen poisoning in Kunming mouse assessed as viologen-associated mortality rate at 100 uL/20g body weight, iv administered 30 mins after viologen challenge for 13 days measured on day 14; assay type: functional; set-up: scale not given: the % may be the effect or the level left
Mus musculus [28] = test: Reduction of viologen poisoning in Kunming mouse assessed as viologen-associated mortality rate at 100 uL/20g body weight, iv administered 1 hr after viologen challenge for 13 days measured on day 14; assay type: functional; set-up: scale not given: the % may be the effect or the level left
[29] = Binding affinity to viologen paraquat cation at pH 1.5 by microcalorimetric titration method

For O=S(=O)(O)c1cc2c(O)c(c1)Cc1cc(S(=O)(=O)O)cc(c1O)Cc1cc(S(=O)(=O)O)cc(c1O)Cc1cc(S(=O)(=O)O)cc(c1O)Cc1cc(S(=O)(=O)O)cc(c1O)C2, the Activity [1] was “Active”, the Activity (Mus musculus [2]) was “Active” and the Activity (Mus musculus [3]) was “Active”. For the same molecule, the Ks [4] was 5.5 10^3/M, the Activity (Mus musculus [5]) was 30.8 g and the Activity (Mus musculus [6]) was 40%. The Ks [7] was 3.23 10^6/M, the Activity (Mus musculus [8]) was 31 g and the Activity (Mus musculus [9]) was 20%. For the same molecule, the Activity [10] was “Active”, the Ks [11] was 2.51 10^5/M and the Activity (Mus musculus [12]) was 31 g. For the same molecule, the Activity [13] was “Active”, the Activity (Mus musculus [14]) was “Active” and the Activity (Mus musculus [15]) was 31 g. For the same molecule, the Activity [16] was “Active”, the Activity (Mus musculus [17]) was 33.4 g and the Activity [18] was “Active”. The Activity (Mus musculus [19]) was 40%, the Activity (Mus musculus [20]) was “Active” and the Ks [21] was 1.12 10^5/M. The Activity (Mus musculus [22]) was “Active”, the Activity [23] was “Active” and the Activity (Mus musculus [24]) was 31 g. The Activity (Mus musculus [25]) was “Active”, the Activity [26] was “Active” and the Activity (Mus musculus [27]) was 40%. The Activity (Mus musculus [28]) was 0% and the Activity [29] was “Active”.

For O=S(=O)(O)c1cc2c(O)c(c1)Cc1cc(S(=O)(=O)O)cc(c1O)Cc1cc(S(=O)(=O)O)cc(c1O)Cc1cc(S(=O)(=O)O)cc(c1O)C2, the Activity [1] was “Active”, the Ks [4] was 3.09 10^4/M and the Ks [7] was 7.95 10^5/M. For the same molecule, the Activity [10] was “Active”, the Ks [11] was 9.33 10^4/M and the Activity [13] was “Active”. The Activity [16] was “Active”, the Activity [18] was “Active” and the Ks [21] was 5.4 10^5/M. For the same molecule, the Activity [23] was “Active”, the Activity [26] was “Active” and the Activity [29] was “Active”.

For O=S(=O)(O)c1cc2c(O)c(c1)Sc1cc(S(=O)(=O)O)cc(c1O)Sc1cc(S(=O)(=O)O)cc(c1O)Sc1cc(S(=O)(=O)O)cc(c1O)S2, the Ks [4] was 2.22 10^3/M, the Ks [7] was 4.57 10^4/M and the Ks [11] was 8.68 10^3/M. For the same molecule, the Ks [21] was 2.39 10^4/M, the Activity [23] was “Active” and the Activity [26] was “Active”.
